In patent publication US20060183119A1, “Method for determining predisposition to a physiological reaction in a patient” (UNIVERSITE LAVAL, priority 2002, published 2006):
Like-named read-outs stand apart in the source and are kept apart here.

Tests used:
UGT1A7*1 = molecular target: T1, UGT1A7*1 (Homo sapiens, UniProt Q9HAW7); assay: SN-38 glucuronidation by microsomes of HEK293 cells expressing UGT1A7*1; format: in vitro ADME; set-up: key to Function (SN-38G formation versus *1 allele): High: no significant difference in activity compared to *1 allele.; Low: significantly lower SN-38G formation versus *1 allele
T1 construct: expressed in transfected cells
T1 sequence (Q9HAW7 26-530): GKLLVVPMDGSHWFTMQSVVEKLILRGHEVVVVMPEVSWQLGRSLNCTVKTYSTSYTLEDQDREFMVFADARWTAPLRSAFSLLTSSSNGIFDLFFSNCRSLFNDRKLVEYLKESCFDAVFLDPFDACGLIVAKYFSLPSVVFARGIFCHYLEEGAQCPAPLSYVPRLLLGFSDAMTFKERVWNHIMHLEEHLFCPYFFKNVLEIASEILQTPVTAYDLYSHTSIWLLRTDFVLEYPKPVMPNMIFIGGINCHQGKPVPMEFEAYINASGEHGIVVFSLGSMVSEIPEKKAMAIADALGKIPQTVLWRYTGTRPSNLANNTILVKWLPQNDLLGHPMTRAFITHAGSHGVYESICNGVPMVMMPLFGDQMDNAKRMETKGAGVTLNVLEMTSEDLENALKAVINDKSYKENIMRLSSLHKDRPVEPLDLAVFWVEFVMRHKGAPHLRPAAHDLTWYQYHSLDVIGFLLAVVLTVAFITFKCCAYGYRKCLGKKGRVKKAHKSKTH
Protocol: Western blot analyses of UGT1A7 and UGT1A9 variants expressed in HEK293 cells were performed on microsomal proteins (10 μg) separated on a 10% SDS-polyacrylamide gel. After transferring the proteins, the membranes were probed with an anti-UGT1A RC-71 polyclonal antibody and with an anti-calnexin antibody. The relative levels of UGT1A9 (a) and UGT1A7 proteins (b) were determined by semi-quantitative densitometric analysis of the Enhanced chemiluminescence (ECL) image. The in vitro SN-38 activity was assessed using microsomal fractions prepared from HEK293 cells expressing the *1 and variant UGT1A9 (c) and UGT1A7 (d) alleles and incubated with 5 μM of SN-38 as described in Materials and Methods.
For the determination of Vmax and Km.

human UGT1A9*3 = molecular target: T2, human UGT1A9*3 (Homo sapiens, UniProt O60656, M33T); assay: Glucuronidation by microsomes of HEK-293 cells stably expressing UGT1A9*3
T2 sequence (O60656 26-530 M33T): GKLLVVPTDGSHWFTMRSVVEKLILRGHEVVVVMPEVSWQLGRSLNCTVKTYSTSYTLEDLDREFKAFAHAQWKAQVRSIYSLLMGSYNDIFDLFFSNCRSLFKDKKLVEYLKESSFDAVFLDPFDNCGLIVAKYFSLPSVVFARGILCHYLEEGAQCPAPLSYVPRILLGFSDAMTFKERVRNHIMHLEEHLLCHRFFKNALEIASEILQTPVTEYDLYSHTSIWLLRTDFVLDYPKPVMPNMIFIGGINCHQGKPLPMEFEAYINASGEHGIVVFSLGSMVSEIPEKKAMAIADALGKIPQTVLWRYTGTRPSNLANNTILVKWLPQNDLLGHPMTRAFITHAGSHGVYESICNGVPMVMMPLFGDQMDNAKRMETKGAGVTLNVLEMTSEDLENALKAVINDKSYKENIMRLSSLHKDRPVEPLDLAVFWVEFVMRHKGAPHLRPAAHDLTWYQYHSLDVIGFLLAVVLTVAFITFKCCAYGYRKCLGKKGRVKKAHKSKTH
Protocol: Microsomal fractions from HEK-293 cells stably expressing human UGT1A9*1, UGT1A9*2 and UGT1A9*3 were used in enzymatic assays. Reactions (100 μl volume) contained 50 mM Tris-HCl, pH 7.3, 10 mM MgCl2, 100 μg/mL phosphatidylcholine, 1 mM UDP-glucuronic acid, 40 to 60 μg of membrane protein. […] Human liver microsome were incubated in the same condition for control. Reaction was stopped by the addition of 200 μL MeOH+1% HCl 2N, followed by centrifugation at 14000 rpm for 10 minutes. Supernatant was filtered through a 0.22 μm filter and 100 μL of water was added. For SN-38 and SN-38-glucuronide detection, 10 μL samples were injected on a liquid chromatographic system coupled to a fluorescence detector. Time-course experiments were realized to determine the linearity of the glucuronidation reaction.
A liquid chromatographic method was developed to quantify SN-38 glucuronidation of UGT cell line-derived microsomes and human liver microsomes. Samples were analyzed using high performance liquid chromatography (Alliance 2695, Waters, Milford, Mass.). […] At a constant flow rate (0.7 ml/min), a linear gradient from 20 to 65% B was run over 3 min, held 0.8 min and a second gradient until 95% of B was run over 2 min and then re-equilibrated to 20% B over 2 min. The effluent from the HPLC system (Alliance 2695) was connected directly to a fluorescence detector (Waters, Milford, Mass.) using an excitation wavelength of […] and an emission of 460 nm. […] Determination of the glucuronidation rates obtained with other substrates was performed as currently known in the art.
Microsomal fractions from HEK293 (40 to 60 μg) were added to a reaction mixture (100 μL) containing 50 mM Tris-HCl, pH 7.3, 10 mM MgCl2, 100 μg/mL phosphatidylcholine and 2 mM UDP-glucuronic acid. […] Commercially available human liver microsomes (Human Cell Culture Center Inc., Laurel, Md.) were incubated in the same conditions for all experiments. Time-course experiments were performed to determine the linearity of the glucuronidation reaction. For the determination of Vmax and Km. HEK293 cells stably expressing UGT1A9 enzymes were incubated in the presence of various concentrations of SN-38 ranging from 0.1 to 200 μM and incubated for 30 min as described above whereas UGT1A7 membranes preparations were incubated for 3 hours. […] Reactions with SN-38 were stopped by the addition of 200 μL MeOH+1% HCl 2N, followed by centrifugation at 14000×g for 10 minutes. The supernatants were filtered through a 0.22 μm membrane and 100 μL of water was added to the filtrate. For the detection of SN-38 and its glucuronide (SN-38G), 10 μL samples were injected in a liquid chromatographic system (HPLC) coupled to fluorescence detector as described below.
A HPLC method was developed to quantify the rates of SN-38 glucuronidation from the various microsomal fractions under study. The HPLC system used was an Alliance 2695 (Waters, Milford, Mass.) equipped with a 50×3.2 mm Colombus C18 column (Phenomenex, Torrance, Calif.). […] Then a second gradient ranging from 65% to 95% solvent B was generated during the following 2 min. Finally, the column was re-equilibrated to 20% solvent B for 2 min. The column was connected to a fluorescence detector model 474 (Waters, Milford, Mass.) and the molecules were excited at a wavelength of 370 nm and an emission of 425 nm.

[1] = threonine at position 33, versus UGT1A9*1

CCc1c2c(nc3ccc(O)cc13)-c1cc3c(c(=O)n1C2)COC(=O)[C@]3(O)CC [SN-38, 7-ethyl-10-hydroxycamptothecin]
SN-38 glucuronidating activity of the allele (in words) (UGT1A7*1): highest
Function (SN-38G formation versus *1 allele) (UGT1A7*1; in vitro experiments): High
residual activity compared to the wild type enzyme (SN-38G formation) (human UGT1A9*3; 5 μM of SN-38): 3.8%
Vmax values lower for UGT1A9*3 compared with UGT1A9*1 (human UGT1A9*3; SN-38 glucuronidation): about 26 times
Vmax (human UGT1A9*3; SN-38 glucuronidation, 0.1 to 200 μM, mean±SD): 11.89±2.61 pmol/min/mg protein
Km (human UGT1A9*3; SN-38 glucuronidation, Table 5): 3.21 ± 0.95 µM
Vmax (human UGT1A9*3; SN-38 glucuronidation, Table 5): 15.50 ± 8.40
SN-38 glucuronidating activity of the allele (in words) (human UGT1A9*3; in vitro functional genomic assays): low
Km (human UGT1A9*3; read-out: Apparent Km, SN-38 glucuronidation, 0.1 to 200 μM, mean±SD, Lineweaver-Burk): 3.21 ± 0.95 µM
decrease of glucuronidation rate (human UGT1A9*3; [1]): approximately 20 folds
decreased conjugation rate for SN-38 (human UGT1A9*3; [1]): 96.3%
effect of codon 33 variation on affinity of the protein for the substrate (in words) (human UGT1A9*3; versus UGT1A9*1): does not affect significantly
